In test [1] the target is Nav1.8 (Homo sapiens, UniProt Q9Y5Y9). In kind it is biochemical.
For test [2], the system named is Wild-type (WT) Tetrahymena cells. Put plainly: Fluorescent toxin labeling of fixed wild-type control Tetrahymena cells. In kind it is binding, Tetrahymena thermophila. To be noted: 10 nM, 30 minutes at RT.
Test [3] has as its target T1, Kv1.3 (Homo sapiens, UniProt P22001).
T1 construct: expressed in transfected cells; host or cells: Tetrahymena thermophila (transformed, CdCl2-induced, paraformaldehyde-fixed)
Put plainly: Fluorescent toxin labeling of fixed Kv1.3 expressing Tetrahymena cells (confocal microscopy). To be noted: 10 nM, 30 minutes at RT. In kind it is binding.

In test [4] the target is T1, Kv1.3. In words: Competition of ShK-TAMRA labeling of Kv1.3 expressing cells by non-labeled toxins. In kind it is binding. Particulars: 100 nM (saturating) toxin co-incubated with 10 nM ShK-TAMRA.

No end group written: not given here.

Nav1.8, sequence (Q9Y5Y9 whole entry): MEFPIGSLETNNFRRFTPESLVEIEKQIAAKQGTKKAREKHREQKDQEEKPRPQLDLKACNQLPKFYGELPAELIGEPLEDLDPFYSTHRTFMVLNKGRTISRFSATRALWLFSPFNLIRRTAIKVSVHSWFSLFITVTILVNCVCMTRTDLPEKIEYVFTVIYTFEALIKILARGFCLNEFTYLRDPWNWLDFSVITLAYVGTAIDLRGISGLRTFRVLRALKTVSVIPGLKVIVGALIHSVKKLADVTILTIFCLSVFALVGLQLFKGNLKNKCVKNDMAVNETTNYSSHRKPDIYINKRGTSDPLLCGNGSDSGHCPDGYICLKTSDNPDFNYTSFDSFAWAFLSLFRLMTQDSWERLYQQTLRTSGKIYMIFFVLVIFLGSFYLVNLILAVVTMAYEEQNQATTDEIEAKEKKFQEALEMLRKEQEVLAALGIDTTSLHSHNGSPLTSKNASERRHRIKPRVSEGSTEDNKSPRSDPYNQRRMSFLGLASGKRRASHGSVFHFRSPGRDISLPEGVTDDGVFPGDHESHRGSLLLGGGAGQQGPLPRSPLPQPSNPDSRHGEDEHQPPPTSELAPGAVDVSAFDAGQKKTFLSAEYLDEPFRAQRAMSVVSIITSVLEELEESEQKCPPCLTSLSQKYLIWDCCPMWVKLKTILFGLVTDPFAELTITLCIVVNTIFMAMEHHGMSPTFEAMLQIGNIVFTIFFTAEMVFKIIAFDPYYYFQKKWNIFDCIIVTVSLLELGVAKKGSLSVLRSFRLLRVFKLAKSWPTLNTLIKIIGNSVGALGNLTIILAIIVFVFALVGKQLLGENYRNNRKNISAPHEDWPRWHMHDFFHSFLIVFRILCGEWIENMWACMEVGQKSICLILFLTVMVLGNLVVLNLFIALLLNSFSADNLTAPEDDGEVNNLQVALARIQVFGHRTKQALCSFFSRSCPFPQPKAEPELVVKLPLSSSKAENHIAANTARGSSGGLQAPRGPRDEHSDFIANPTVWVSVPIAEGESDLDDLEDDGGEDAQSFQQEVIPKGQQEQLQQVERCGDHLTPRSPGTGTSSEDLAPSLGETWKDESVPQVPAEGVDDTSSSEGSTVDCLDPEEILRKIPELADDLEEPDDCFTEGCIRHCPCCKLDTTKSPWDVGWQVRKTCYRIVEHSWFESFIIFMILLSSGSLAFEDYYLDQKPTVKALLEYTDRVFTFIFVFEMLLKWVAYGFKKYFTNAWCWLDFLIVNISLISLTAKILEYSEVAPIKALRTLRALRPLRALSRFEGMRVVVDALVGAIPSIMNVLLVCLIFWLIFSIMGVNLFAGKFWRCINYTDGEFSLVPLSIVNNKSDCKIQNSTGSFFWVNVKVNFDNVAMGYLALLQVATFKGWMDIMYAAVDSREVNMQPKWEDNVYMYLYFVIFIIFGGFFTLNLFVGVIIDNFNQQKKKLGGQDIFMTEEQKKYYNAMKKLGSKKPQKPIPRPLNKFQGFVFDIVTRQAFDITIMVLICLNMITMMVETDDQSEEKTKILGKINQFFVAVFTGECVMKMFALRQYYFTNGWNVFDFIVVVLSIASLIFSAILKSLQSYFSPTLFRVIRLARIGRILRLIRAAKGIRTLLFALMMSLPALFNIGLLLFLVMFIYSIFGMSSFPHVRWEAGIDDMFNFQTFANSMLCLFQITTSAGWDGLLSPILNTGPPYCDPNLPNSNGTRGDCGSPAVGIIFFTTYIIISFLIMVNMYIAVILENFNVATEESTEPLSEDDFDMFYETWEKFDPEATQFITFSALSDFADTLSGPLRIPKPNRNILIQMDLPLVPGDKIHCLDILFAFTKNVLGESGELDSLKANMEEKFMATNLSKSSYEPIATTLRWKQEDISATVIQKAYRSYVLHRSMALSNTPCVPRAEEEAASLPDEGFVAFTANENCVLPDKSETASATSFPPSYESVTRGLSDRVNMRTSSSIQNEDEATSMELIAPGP
T1 sequence (P22001 whole entry): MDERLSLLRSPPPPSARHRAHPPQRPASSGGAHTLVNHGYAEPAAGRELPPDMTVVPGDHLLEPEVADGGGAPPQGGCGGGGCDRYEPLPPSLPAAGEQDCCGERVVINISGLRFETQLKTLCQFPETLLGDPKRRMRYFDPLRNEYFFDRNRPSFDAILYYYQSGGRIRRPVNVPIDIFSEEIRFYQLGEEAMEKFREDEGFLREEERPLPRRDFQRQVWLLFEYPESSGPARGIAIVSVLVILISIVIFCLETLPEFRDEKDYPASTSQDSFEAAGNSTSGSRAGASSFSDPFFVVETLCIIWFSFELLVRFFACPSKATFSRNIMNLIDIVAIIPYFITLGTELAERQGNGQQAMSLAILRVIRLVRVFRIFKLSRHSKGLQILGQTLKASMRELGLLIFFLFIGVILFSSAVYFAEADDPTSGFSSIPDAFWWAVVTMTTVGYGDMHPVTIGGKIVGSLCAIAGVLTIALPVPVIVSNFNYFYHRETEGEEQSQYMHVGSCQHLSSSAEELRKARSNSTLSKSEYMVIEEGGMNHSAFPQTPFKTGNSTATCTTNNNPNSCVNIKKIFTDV

In the case of `Cc1c[nH]c(C)c1C(=O)O[C@@H](C)C1=CC[C@@]23OCCN(C)C[C@@]12C[C@@H](O)[C@]12O[C@]4(O)CC[C@@]1(C)[C@H](CC=C32)C4` [BTX, batrachatoxin], the “channel activity following addition of activator” value in test [1] (Nav1.8 proteoliposomes, 10× NaCl chemical gradient, 0 mV holding potential, no conductance before addition) is listed as “channel activity was detected”. Further, the conductances in test [1] (after addition of BTX, 10× NaCl chemical gradient, 0 mV holding potential) was 2-3 pA.
With `NC1=N[C@H](O)[C@H]2[C@H]3O[C@]4(O)O[C@@H]([C@@H](O)[C@@]2(N1)[C@@H]4O)[C@]3(O)CO` [Tetrodotoxin], the “channel activity following addition of blocker” value in test [1] is recorded as “Activity was abolished”.
In the case of Agitoxin-2-TAMRA [AgTX-2-TAMRA], the “labeling of WT cells” value in test [2] is “No labeling”. Also, the “binding to Kv1.3 expressing cells (cell surface labeling)” value in test [3] is listed as “bound to Kv1.3 expressing cells”.
With “Iberiotoxin (QFTDVDCSVSKECWSVCKDLFGVDRGKCMGKKCRCYQ; ends and bridges not checked; cysteine pairing not given here; UniProt P24663 1-37, looked up) [IbTX]”, the “competition with ShK-TAMRA binding” value in test [4] is given as “does not interfere with ShK-TAMRA binding”.
Regarding “Margatoxin (TIINVKCTSPKQCLPPCKAQFGQSAGAKCMNGKCKCYPH; ends and bridges not checked; cysteine pairing not given here; UniProt P40755 1-39, looked up) [MgTX]”, the “competition with ShK-TAMRA binding” value in test [4] is “competitive”.
For ShK-TAMRA, in test [2], the “labeling of WT cells” value is recorded as “No labeling”. For the same compound, the “binding to Kv1.3 expressing cells (cell surface labeling)” value in test [3] is listed as “bound to Kv1.3 expressing cells”.

These data come from patent US20170089921A1, “EXPRESSION OF VOLTAGE-GATED ION CHANNELS IN CILIATES” (priority 2014, published 2017).
